Experimental data published in ChEMBL document CHEMBL5678818, “Discovery of potent SOS1 inhibitors that block RAS activation via disruption of the RAS-SOS1 interaction” (Proc Natl Acad Sci U S A, 2019).

Legend:
[1] = target: Bone morphogenetic protein receptor type-1B (Homo sapiens) (UniProt O00238); experiment: Inhibition of BMPR1B (unknown origin) assessed as residual activity at 100 nM by KINOMEscan analysis relative to control
[2] = target: T1, Mitogen-activated protein kinase kinase kinase 19 (Homo sapiens) (UniProt Q56UN5); experiment: Inhibition of YSK4 (unknown origin) assessed as residual activity at 100 nM by KINOMEscan analysis relative to control
T1 sequence (whole entry): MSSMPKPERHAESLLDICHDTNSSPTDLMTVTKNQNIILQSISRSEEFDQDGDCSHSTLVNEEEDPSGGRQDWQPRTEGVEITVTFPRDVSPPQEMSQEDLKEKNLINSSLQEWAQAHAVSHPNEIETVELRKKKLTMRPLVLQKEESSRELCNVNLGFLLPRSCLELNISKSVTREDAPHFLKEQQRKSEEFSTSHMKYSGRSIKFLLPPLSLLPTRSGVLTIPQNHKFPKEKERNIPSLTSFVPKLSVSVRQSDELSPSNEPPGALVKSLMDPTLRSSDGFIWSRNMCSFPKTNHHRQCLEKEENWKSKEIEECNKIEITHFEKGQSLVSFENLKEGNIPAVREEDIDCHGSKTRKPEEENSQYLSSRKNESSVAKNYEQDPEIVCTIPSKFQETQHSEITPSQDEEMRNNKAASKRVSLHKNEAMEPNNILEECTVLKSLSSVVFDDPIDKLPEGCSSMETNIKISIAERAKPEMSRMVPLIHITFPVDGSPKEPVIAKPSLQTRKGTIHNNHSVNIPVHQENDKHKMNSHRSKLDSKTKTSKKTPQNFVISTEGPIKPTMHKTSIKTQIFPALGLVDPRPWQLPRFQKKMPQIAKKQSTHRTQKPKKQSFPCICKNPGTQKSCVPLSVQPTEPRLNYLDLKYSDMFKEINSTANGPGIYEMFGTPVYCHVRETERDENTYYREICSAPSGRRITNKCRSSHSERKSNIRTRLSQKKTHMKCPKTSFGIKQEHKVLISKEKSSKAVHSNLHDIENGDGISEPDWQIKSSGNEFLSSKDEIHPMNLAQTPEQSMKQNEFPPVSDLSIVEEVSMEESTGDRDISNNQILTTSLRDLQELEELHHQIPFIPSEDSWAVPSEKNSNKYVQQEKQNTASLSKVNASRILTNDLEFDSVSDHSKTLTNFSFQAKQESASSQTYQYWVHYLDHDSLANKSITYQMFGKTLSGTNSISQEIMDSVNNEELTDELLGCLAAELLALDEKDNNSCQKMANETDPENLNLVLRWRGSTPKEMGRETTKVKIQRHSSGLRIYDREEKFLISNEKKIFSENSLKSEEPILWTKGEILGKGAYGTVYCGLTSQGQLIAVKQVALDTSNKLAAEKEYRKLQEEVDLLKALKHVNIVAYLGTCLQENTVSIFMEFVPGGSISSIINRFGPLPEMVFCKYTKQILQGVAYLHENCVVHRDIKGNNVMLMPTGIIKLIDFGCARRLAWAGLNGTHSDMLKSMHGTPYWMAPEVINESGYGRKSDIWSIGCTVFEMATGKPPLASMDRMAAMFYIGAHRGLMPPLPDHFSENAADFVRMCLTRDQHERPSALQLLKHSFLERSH

[3] = target: Mitogen-activated protein kinase kinase kinase 11 (Homo sapiens) (UniProt Q16584); experiment: Inhibition of MLK3 (unknown origin) assessed as residual activity at 100 nM by KINOMEscan analysis relative to control
[4] = target: Activated CDC42 kinase 1 (Homo sapiens) (UniProt Q07912); experiment: Inhibition of TNK2 (unknown origin) assessed as residual activity at 100 nM by KINOMEscan analysis relative to control
[5] = target: T2, Tyrosine-protein kinase Mer (Homo sapiens) (UniProt Q12866); experiment: Inhibition of MERTK (unknown origin) assessed as residual activity at 100 nM by KINOMEscan analysis relative to control
T2 sequence (whole entry): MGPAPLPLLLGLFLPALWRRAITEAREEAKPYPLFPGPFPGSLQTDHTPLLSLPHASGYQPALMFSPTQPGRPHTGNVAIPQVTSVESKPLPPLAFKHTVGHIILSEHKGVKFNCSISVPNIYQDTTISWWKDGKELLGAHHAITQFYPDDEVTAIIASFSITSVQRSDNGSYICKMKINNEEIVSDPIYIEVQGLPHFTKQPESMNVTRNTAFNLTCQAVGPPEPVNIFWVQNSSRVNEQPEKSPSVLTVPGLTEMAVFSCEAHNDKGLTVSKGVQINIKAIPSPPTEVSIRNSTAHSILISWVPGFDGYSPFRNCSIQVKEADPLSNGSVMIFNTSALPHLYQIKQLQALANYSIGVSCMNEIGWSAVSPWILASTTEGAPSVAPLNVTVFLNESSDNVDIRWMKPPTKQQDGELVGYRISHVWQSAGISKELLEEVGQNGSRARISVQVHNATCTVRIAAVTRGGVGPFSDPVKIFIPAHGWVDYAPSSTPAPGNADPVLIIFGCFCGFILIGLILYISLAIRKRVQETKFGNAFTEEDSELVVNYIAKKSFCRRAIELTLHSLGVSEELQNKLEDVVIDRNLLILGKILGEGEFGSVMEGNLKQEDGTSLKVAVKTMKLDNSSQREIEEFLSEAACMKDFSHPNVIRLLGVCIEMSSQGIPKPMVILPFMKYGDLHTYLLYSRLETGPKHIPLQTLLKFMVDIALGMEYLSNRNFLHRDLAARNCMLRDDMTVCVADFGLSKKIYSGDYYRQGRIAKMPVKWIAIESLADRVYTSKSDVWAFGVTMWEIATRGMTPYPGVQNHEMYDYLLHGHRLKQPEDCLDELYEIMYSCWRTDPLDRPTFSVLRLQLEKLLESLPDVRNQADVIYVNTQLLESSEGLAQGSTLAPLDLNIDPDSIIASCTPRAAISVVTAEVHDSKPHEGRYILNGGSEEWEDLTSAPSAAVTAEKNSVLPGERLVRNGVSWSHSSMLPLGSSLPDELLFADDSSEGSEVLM

[6] = target: Serine/threonine-protein kinase 38-like (Homo sapiens) (UniProt Q9Y2H1); experiment: Inhibition of NDR2 (unknown origin) assessed as residual activity at 100 nM by KINOMEscan analysis relative to control
[7] = tested on: Mast/stem cell growth factor receptor Kit (Homo sapiens), P10721 [V559D]; experiment: Inhibition of KIT V559D mutant (unknown origin) assessed as residual activity at 100 nM by KINOMEscan analysis relative to control
Sequence of Mast/stem cell growth factor receptor Kit (Homo sapiens), P10721 [V559D] (P10721 whole entry V559D): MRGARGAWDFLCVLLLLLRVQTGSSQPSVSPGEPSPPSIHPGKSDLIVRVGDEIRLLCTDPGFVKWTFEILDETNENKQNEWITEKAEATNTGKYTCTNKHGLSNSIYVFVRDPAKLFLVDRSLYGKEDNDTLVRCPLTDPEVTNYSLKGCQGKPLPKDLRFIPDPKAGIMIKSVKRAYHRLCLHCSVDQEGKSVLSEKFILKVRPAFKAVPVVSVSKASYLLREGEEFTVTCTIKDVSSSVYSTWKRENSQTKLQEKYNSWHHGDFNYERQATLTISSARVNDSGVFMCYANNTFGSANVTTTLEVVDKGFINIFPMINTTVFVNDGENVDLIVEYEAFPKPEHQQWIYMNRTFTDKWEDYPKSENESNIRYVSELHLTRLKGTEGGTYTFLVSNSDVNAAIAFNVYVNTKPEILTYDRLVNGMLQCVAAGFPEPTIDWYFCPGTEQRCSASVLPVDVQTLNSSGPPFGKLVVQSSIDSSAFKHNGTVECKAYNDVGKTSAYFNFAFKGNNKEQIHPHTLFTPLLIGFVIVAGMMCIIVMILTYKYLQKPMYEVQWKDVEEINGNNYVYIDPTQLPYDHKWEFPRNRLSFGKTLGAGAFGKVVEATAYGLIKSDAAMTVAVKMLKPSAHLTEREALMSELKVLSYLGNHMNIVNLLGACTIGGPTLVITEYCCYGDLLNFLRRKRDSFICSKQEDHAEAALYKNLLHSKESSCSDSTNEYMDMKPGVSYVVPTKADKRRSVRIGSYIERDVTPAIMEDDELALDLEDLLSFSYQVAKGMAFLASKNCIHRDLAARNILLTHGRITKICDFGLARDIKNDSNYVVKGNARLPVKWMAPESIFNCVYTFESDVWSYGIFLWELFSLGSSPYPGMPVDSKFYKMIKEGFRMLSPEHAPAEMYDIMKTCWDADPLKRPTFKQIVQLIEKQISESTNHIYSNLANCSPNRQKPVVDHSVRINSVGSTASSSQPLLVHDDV

Sequence of Activated CDC42 kinase 1 (Homo sapiens) (Q07912 whole entry, looked up): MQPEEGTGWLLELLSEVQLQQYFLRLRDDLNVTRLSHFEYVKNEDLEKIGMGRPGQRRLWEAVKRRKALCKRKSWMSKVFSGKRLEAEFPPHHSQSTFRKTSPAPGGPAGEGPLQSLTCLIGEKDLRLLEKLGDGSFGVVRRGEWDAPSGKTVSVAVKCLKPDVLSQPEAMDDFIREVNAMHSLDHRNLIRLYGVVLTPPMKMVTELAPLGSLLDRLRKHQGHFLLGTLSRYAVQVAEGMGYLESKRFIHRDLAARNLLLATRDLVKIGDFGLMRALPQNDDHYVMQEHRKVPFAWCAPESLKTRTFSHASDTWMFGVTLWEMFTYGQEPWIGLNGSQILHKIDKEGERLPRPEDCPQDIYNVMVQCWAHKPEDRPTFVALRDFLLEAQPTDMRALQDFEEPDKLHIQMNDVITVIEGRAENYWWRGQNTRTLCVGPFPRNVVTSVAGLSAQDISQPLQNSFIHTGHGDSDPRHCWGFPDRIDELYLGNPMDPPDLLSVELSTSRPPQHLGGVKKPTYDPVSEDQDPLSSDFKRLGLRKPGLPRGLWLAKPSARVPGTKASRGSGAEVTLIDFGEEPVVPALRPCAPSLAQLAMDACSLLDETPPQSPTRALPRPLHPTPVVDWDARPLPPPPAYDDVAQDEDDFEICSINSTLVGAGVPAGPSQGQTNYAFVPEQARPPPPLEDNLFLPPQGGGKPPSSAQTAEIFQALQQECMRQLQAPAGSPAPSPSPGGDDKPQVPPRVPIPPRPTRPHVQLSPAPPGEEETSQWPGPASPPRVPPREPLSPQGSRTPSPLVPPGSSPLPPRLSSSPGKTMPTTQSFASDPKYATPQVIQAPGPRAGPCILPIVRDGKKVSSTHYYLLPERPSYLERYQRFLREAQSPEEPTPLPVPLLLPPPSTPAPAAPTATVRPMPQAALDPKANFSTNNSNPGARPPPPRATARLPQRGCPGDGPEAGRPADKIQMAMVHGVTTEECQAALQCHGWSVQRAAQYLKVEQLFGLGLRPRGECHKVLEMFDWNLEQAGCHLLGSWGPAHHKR
Sequence of Mitogen-activated protein kinase kinase kinase 11 (Homo sapiens) (Q16584 whole entry, looked up): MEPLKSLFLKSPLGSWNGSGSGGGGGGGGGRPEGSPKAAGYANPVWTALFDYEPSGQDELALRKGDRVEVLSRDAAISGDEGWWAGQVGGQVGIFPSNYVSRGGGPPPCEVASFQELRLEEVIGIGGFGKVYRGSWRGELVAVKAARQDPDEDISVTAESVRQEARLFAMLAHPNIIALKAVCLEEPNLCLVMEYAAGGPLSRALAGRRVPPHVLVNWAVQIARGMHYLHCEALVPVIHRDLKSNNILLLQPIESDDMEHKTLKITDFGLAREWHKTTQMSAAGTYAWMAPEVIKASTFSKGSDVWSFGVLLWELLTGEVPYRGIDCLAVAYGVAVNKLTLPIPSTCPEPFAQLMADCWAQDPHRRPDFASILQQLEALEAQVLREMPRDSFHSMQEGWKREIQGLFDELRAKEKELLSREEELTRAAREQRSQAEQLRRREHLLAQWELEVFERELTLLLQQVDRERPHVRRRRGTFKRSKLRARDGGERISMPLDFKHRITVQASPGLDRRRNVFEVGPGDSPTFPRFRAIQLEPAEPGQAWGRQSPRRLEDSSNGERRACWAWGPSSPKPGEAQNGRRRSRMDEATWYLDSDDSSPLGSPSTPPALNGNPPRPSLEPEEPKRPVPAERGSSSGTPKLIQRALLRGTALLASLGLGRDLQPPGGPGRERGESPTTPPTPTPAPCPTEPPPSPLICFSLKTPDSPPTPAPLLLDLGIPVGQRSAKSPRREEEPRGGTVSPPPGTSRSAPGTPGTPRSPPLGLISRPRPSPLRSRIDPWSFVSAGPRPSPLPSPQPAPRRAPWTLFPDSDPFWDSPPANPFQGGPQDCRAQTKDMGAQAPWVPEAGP
Sequence of Bone morphogenetic protein receptor type-1B (Homo sapiens) (O00238 whole entry): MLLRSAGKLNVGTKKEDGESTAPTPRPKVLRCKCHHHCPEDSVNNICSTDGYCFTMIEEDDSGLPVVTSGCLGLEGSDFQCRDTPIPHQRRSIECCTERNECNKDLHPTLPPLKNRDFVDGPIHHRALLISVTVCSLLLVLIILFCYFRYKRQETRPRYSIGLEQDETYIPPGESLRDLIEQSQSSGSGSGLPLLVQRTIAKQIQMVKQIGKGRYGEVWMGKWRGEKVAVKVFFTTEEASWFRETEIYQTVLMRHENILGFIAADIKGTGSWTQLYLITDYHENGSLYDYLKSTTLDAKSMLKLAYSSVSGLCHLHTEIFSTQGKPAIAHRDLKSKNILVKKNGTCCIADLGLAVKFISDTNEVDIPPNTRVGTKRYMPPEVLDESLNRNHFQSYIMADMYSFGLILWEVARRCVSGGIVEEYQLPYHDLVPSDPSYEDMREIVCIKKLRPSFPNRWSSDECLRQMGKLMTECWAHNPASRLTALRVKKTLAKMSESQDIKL
Sequence of Serine/threonine-protein kinase 38-like (Homo sapiens) (Q9Y2H1 2-464 limits assumed): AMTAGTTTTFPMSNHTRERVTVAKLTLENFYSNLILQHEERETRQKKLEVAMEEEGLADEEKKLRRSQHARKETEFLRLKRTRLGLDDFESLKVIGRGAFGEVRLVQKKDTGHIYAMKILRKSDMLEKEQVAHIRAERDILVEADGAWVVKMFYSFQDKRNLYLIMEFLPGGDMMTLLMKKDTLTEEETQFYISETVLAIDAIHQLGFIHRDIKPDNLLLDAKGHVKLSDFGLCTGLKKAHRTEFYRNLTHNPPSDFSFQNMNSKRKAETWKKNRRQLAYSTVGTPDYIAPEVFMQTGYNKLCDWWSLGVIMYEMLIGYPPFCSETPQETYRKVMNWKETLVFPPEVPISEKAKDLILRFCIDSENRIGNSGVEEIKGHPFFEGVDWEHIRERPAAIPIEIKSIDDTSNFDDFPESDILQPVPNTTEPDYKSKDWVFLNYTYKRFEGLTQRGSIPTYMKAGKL

## COc1cc2ncnc(N[C@H](C)c3cccc4ccccc34)c2cc1OC
[1]
  Activity: 92%
[2]
  Activity: 92%
[3]
  Activity: 100%
[4]
  Activity: 100%
[5]
  Activity: 97%
[6]
  Activity: 49%
[7]
  Activity: 100%
